In patent publication US9884823B2, “Oxime ether acetate compound, preparation method therefor and weeding application thereof” (ZHEJIANG UNIVERSITY OF TECHNOLOGY, priority 2014, dated 2018):
Where two headings read alike, the source gives them in different places.

Assays:
Wheat = assay: Culture dish method (general screening); assay type: in vivo; details: 100 mg/L, 7 days
Text: (§3) Culture dish method (general screening): The test targets were radish, cucumber, rape, wheat, sorghum and barnyard grass; the seeds of wheat, sorghum and radish were germinated in advance, and the uniform emerge-germinating seeds were used in the test.

Chinese sorghum = assay: Culture dish method (general screening); assay type: in vivo; details: 100 mg/L, 7 days
Text: as §3

Barnyardgrass [1] = assay: Culture dish method (general screening); assay type: in vivo, barnyard grass; details: 100 mg/L, 7 days
Text: as §3

Cucumber = assay: Culture dish method (general screening); assay type: in vivo; details: 100 mg/L, 7 days
Text: as §3

Rape [2] = assay: Culture dish method (general screening); assay type: in vivo; details: 100 mg/L, 7 days
Text: as §3

Radish = assay: Culture dish method (general screening); assay type: in vivo; details: 100 mg/L, 7 days
Text: as §3

Abutilon = assay: Potted plants live body test; assay type: in vivo
Text: (§1) The raw drug which was selected from the compounds in table 1 was weighed using an analytical balance (0.0001 g), and dissolved in DMF containing 1 wt % Tween-80 emulsifier to prepare a mother liquor of raw drug with a mass concentration of 1.0˜5.0%, and then diluted with distilled water, to prepare preparations at desired concentrations according to the ratio of ingredients in Examples 8, 9 and 10.
(§2) The test targets were mustard, small quinoa, Abutilon, amaranthus retroflexus, Eclipta prostrata, crabgrass, dog point. A pot with a diameter of 7.5 cm was used, filled with composite soil (garden soil:nursery matrix, 1:2, v/v) to ¾ of the pot, then the above […] kinds of weeds targets were directly seeded (germination rate ≧85%), covered with soil at a thickness of 0.2 cm. When the weeds grew to 3-leaf stage, pre-emergence soil treatment for weeds planting, and then spraying was performed.

Crabgrass = assay: Potted plants live body test; assay type: in vivo
Text: as §1, §2

Dog point = assay: Potted plants live body test; assay type: in vivo
Text: as §1, §2

Eclipta prostrata = assay: Potted plants live body test; assay type: in vivo; details: for efficiency, Eclipta prostrata: 30 days, Table 9
Text: as §1, §2

amaranthus retroflexus = assay: Potted plants live body test; assay type: in vivo
Text: as §1, §2

Barnyardgrass [3] = assay: Potted plants live body test; assay type: in vivo, barnyard grass
Small quinoa = details: 150 g a.i./ha, 30 days, Table 9
Text: as §1, §2

[4] = test system: broadleaf weeds such as mustard, small quinoa, Abutilon, Amaranthus retroflexus and Eclipta prostrate; details: 150 g a.i./ha
Text: as §1, §2

[5] = test system: grass weeds such as crabgrass, barnyard grass, dog point
Text: as §1, §2

weeds = details: pre-emergence soil treatment; dose lowered below 150 g a.i./ha
Text: as §1, §2

Mustard = details: 150 g a.i./ha, 30 days, Table 9
Corn = details: post-emergence spray treatment
Soybean = details: 150 g a.i./ha; post-emergence spray treatment
Cotton = details: 150 g a.i./ha; post-emergence spray treatment
Rice = details: 150 g a.i./ha; post-emergence spray treatment
Rape [6] = details: 150 g a.i./ha; post-emergence spray treatment
Barley = details: post-emergence spray treatment
[7] = Postemergence spraying, 150 g a.i./ha, 30 days, Table 9
[8] = Pre-emergence soil treatment, 37.5 g a.i./ha
[9] = Pre-emergence soil treatment, 75 g a.i./ha
[10] = Pre-emergence soil treatment, 150 g a.i./ha, 30 days, Table 9
[11] = Pre-emergence soil treatment, 150 g a.i./ha, Table 10
[12] = postemergence spraying, 37.5 g a.i./ha
[13] = postemergence spraying, 75 g a.i./ha
[14] = postemergence spraying, 150 g a.i./ha, Table 10

CON=C(C(=O)OC)c1ccccc1COc1cccc(-c2ncc(C(F)(F)F)cc2Cl)c1 [Compound 101]
inhibition rate, Wheat Root (Wheat): 50%
inhibition rate, Wheat Stem (Wheat): 20%
inhibition rate, Chinese sorghum Root (Chinese sorghum): 100%
inhibition rate, Chinese sorghum Stem (Chinese sorghum): 100%
inhibition rate, Barnyardgrass Root (Barnyardgrass [1]): 100%
inhibition rate, Barnyardgrass Stem (Barnyardgrass [1]): 95%
inhibition rate, Cucumber Root (Cucumber): 95%
inhibition rate, Cucumber Stem (Cucumber): 100%
inhibition rate, Rape Root (Rape [2]): 100%
inhibition rate, Rape Stem (Rape [2]): 100%
inhibition rate, Radish Root (Radish): 100%
inhibition rate, Radish Stem (Radish): 100%
efficiency, Abutilon (Abutilon; [7]): 100%
efficiency, Abutilon (Abutilon; [8]): 0%
efficiency, Abutilon (Abutilon; [9]): 0%
efficiency, Abutilon (Abutilon; [10]): 100%
efficiency, Abutilon (Abutilon; [11]): 100%
efficiency, Abutilon (Abutilon; [12]): 30%
efficiency, Abutilon (Abutilon; [13]): 60%
efficiency, Abutilon (Abutilon; [14]): 100%
efficiency, Crabgrass (Crabgrass; [7]): 0%
efficiency, Crabgrass (Crabgrass; [8]): 0%
efficiency, Crabgrass (Crabgrass; [9]): 0%
efficiency, Crabgrass (Crabgrass; [10]): 80%
efficiency, Crabgrass (Crabgrass; [11]): 80%
efficiency, Crabgrass (Crabgrass; [12]): 0%
efficiency, Crabgrass (Crabgrass; [13]): 0%
efficiency, Crabgrass (Crabgrass; [14]): 0%
efficiency, Dog point (Dog point; [7]): 0%
efficiency, Dog point (Dog point; [8]): 0%
efficiency, Dog point (Dog point; [9]): 0%
efficiency, Dog point (Dog point; [10]): 50%
efficiency, Dog point (Dog point; [11]): 50%
efficiency, Dog point (Dog point; [12]): 0%
efficiency, Dog point (Dog point; [13]): 0%
efficiency, Dog point (Dog point; [14]): 0%
efficiency, Eclipta prostrata (Eclipta prostrata; Postemergence spraying, 150 g a.i./ha): 100%
efficiency, Eclipta prostrate (Eclipta prostrata; [8]): 0%
efficiency, Eclipta prostrate (Eclipta prostrata; [9]): 0%
efficiency, Eclipta prostrata (Eclipta prostrata; Pre-emergence soil treatment, 150 g a.i./ha): 85%
efficiency, Eclipta prostrate (Eclipta prostrata; [11]): 85%
efficiency, Eclipta prostrate (Eclipta prostrata; [12]): 97.5%
efficiency, Eclipta prostrate (Eclipta prostrata; [13]): 100%
efficiency, Eclipta prostrate (Eclipta prostrata; [14]): 100%
efficiency, amaranthus retroflexus (amaranthus retroflexus; [7]): 100%
efficiency, amaranthus retroflexus (amaranthus retroflexus; [8]): 0%
efficiency, amaranthus retroflexus (amaranthus retroflexus; [9]): 15%
efficiency, amaranthus retroflexus (amaranthus retroflexus; [10]): 100%
efficiency, amaranthus retroflexus (amaranthus retroflexus; [11]): 100%
efficiency, amaranthus retroflexus (amaranthus retroflexus; [12]): 100%
efficiency, amaranthus retroflexus (amaranthus retroflexus; [13]): 100%
efficiency, amaranthus retroflexus (amaranthus retroflexus; [14]): 100%
efficiency, Barnyardgrass (Barnyardgrass [3]; [8]): 0%
efficiency, Barnyardgrass (Barnyardgrass [3]; [9]): 0%
efficiency, Barnyardgrass (Barnyardgrass [3]; [11]): 0%
efficiency, Barnyardgrass (Barnyardgrass [3]; [12]): 0%
efficiency, Barnyardgrass (Barnyardgrass [3]; [13]): 0%
efficiency, Barnyardgrass (Barnyardgrass [3]; [14]): 0%
efficiency, Small quinoa (Small quinoa; Postemergence spraying): 100%
efficiency, Small quinoa (Small quinoa; Pre-emergence soil treatment): 100%
herbicidal activity on broadleaf weeds targets ([4]; 30 days after administration, Table 9 summary): herbicidal activity
activity on the growth of broadleaf weeds ([4]; postemergence spraying, 30 days, vs clear water control): inhibitory activity
activity for grass targets such as crabgrass and dog point ([5]; 150 g a.i./ha, 30 days after administration, Table 9 summary): poor activity
activity on grass weeds such as crabgrass, dog point ([5]; postemergence spraying, 150 g a.i./ha, 30 days): almost have no activity
activity on crabgrass, barnyard grass, dog point ([5]; postemergence treatment, 150, 75, 37.5 g a.i./ha): not good activity or no activity
activity on grass weeds ([5]; pre-emergence soil treatment, 150 g a.i./ha): not good activity
activity on 6 kinds of weed targets (weeds): significantly decreased activity or no activity
efficiency, Mustard (Mustard; Postemergence spraying): 100%
efficiency, Mustard (Mustard; Pre-emergence soil treatment): 100%
Crop inhibition rate, Corn (Corn; 150 g a.i./ha): 0%
crop safety for corns (Corn): safer
Crop inhibition rate, Soybean (Soybean): 40%
Crop inhibition rate, Cotton (Cotton): 50%
Crop inhibition rate, Rice (Rice): 30%
Crop inhibition rate, Rape (Rape [6]): 50%
Crop inhibition rate, Barley (Barley; 150 g a.i./ha): 0%
crop safety for barleys (Barley): safer

COc1cc(OC)nc(Oc2ccccc2CNc2ccc(C(=O)OC(C)C)cc2)n1 [Pyribambenz isopropyl, reference compound]
inhibition rate, Wheat Root (Wheat): 95%
inhibition rate, Wheat Stem (Wheat): 95%
inhibition rate, Chinese sorghum Root (Chinese sorghum): 100%
inhibition rate, Chinese sorghum Stem (Chinese sorghum): 90%
inhibition rate, Barnyardgrass Root (Barnyardgrass [1]): 100%
inhibition rate, Barnyardgrass Stem (Barnyardgrass [1]): 95%
inhibition rate, Cucumber Root (Cucumber): 95%
inhibition rate, Cucumber Stem (Cucumber): 90%
inhibition rate, Rape Root (Rape [2]): 100%
inhibition rate, Rape Stem (Rape [2]): 100%
inhibition rate, Radish Root (Radish): 100%
inhibition rate, Radish Stem (Radish): 90%
efficiency, Abutilon (Abutilon; [14]): 0%
efficiency, Crabgrass (Crabgrass; [14]): 50%
efficiency, Dog point (Dog point; [14]): 80%
efficiency, Eclipta prostrate (Eclipta prostrata; [14]): 0%
efficiency, amaranthus retroflexus (amaranthus retroflexus; [14]): 70%
efficiency, Barnyardgrass (Barnyardgrass [3]; [14]): 50%
